Experimental data as given in patent EP4803511A1, “SMALL MOLECULE COMPOUND HAVING SULFONIC ACID OR SULFINIC ACID LACTONE STRUCTURE, COMPOSITION AND USE THEREOF” (Hangzhou Phecdamed Co., Ltd., priority 2023, dated 2025).

How the values were obtained:
[1] = test system: IL-8; experiment: IL-8 gene expression in HaCaT after UVB radiation (q-PCR); type: cell-based, human; details: UVB 80 mJ/cm^2, 24 hrs, dose-dependent
Source text: (§1) In the following Test Examples 6-1 and 6-2, using immortalized keratinocytes (HaCaT) and UVB to establish a model, after the compound to be test was applied to HaCaT, the expression levels of TNF-α, IL-8, IL-1β and EP2 were detected; using immortalized keratinocytes (HaCaT) and capsaicin to establish a model, after the compound to be test was applied to HaCaT, the expression level of TRPV1 was detected, so as to evaluate the soothing effect of the test substance from multiple dimensions.
(§2) • 1) Cell inoculation: HaCaT cells were inoculated into a 6-well plate at 6×10^5/well, cultured in an incubator (37°C, 5% CO2) for 12 hrs, and a normal control group (0 mJ/cm^2 + vehicle control), a model control group (80 mJ/cm^2 + vehicle control), a low concentration group (80 mJ/cm^2 + low concentration compound), a medium concentration group (80 mJ/cm^2 + medium concentration compound), and a high concentration group (80 mJ/cm^2 + high concentration compounds) were respectively provided. • 2) UVB modeling: The HaCaT cells were washed 3 times with D'Hanks before UVB radiation, 1 mL of D'Hanks was added into the wells, to make the cells to be immersed, and the control group was coated with tinfoil and placed in the dark. […]

[2] = test system: β-galactosidase; experiment: Zebrafish oxidative aging model (menadione), β-galactosidase activity; type: in vivo; details: I-8 at 22.2 µg/mL, 22 hrs, 4 µM menadione; compared with the modeling group, statistical significance
Procedure: Experimental animal: Healthy wild-type AB strain zebrafish at 48 hpf (hours post-fertilization)
Healthy AB strain zebrafish were taken as experimental animal. A zebrafish oxidative aging model was constructed using chemical mutagenesis with 4 µM menadione as the modeling drug. Fucoxanthin was used as a positive control compound. After treating the zebrafish oxidative aging model with different concentrations of I-8 for 22 hrs, changes in the reactive oxygen species (ROS) content, β-galactosidase activity, and the expression of three antioxidant and anti-aging related genes (Cu/Zn-sod, Mn-sod, and ampk) were respectively detected and statistically analyzed.
During the experiment, the modeling drug, positive compound, and I-8 were dispersed together in the culture water of zebrafish. […] Cell ROX™ Deep Red fluorescent probes and β-galactosidase staining kits were used to specifically label ROS and β-galactosidase in the fish, respectively, and the staining intensity was quantified using Image-Pro Plus software. After extracting RNA from the whole fish, the expression changes of three genes (Cu/Zn-sod, Mn-sod, and ampk) in the fish were detected at the mRNA level using Quantitative Real-time PCR (RT-qPCR). The data were statistically analyzed using GraphPad software.

[3] = test system: EP2; experiment: EP2 gene expression in HaCaT after UVB radiation (q-PCR); type: cell-based, human; details: UVB 80 mJ/cm^2, 24 hrs, dose-dependent
Source text: as §1, §2

[4] = Permeability into skin using a Franz diffusion cell; type: in vitro ADME, Bama miniature pig; details: for Concentration of the compound to be test in the skin, Mean / Concentration of the compound to be test in the skin, Skin-1 / Concentration of the compound to be test in the skin, Skin-2 / Concentration of the compound to be test in the skin, Skin-3: 0.1 mg/mL solution, 32 °C
Procedure: Experimental materials: skin from the back of a one-month-old Bama miniature pig, 0.8-1.0 mm thick; 0.1 mg/mL solution of the compound to be test, dissolvent: 50 mM Sodium Phosphate Buffer (PB) buffer solution containing 20% ethanol.
Experimental procedure: • 1. 400 uL solution of the compound to be test was pipetted into the feed cell, repeated three times. • 2. About 7600 uL of 50 mM PB buffer solution was added to the corresponding receiving cell. • 3. The compound to be test was permeated at 32 °C for 2 hrs and 6 hrs. • 4. At 2 hrs and 6 hrs, the skin was washed with 50 mM PB buffer solution containing 20% ethanol, the skin from the permeation area was removed and homogenized, and acetonitrile solution containing internal standard was added. • 5. Centrifugation was performed, 100 µL of the supernatant was taken and added into 100 µL of purified water, after mixing uniformly, quantitative analysis was performed by LC-MS/MS.

In the case of `O=S1(=O)Oc2cc(O)ccc2-c2ccc(O)cc21` [Compound I-8], the “expression level of IL-8” value [1] was “downregulating”, the β-galactosidase activity [2] was “downregulated” and the “expression level of EP2” value [3] was “downregulating”. For the same compound, the “Concentration of the compound to be test in the skin, Mean” value ([4]; Time 2 h) was 7167 ng/g, the “Concentration of the compound to be test in the skin, Skin-1” value ([4]; Time 2 h) was 7450 ng/g and the “Concentration of the compound to be test in the skin, Skin-2” value ([4]; Time 2 h) was 6600 ng/g. The “Concentration of the compound to be test in the skin, Skin-3” value ([4]; Time 2 h) was 7450 ng/g, the “Concentration of the compound to be test in the skin, Mean” value ([4]; Time 6 h) was 11417 ng/g and the “Concentration of the compound to be test in the skin, Skin-1” value ([4]; Time 6 h) was 13650 ng/g. For the same compound, the “Concentration of the compound to be test in the skin, Skin-2” value ([4]; Time 6 h) was 10450 ng/g, the “Concentration of the compound to be test in the skin, Skin-3” value ([4]; Time 6 h) was 10150 ng/g and the permeation amount ([4]; within 6 hours) was 10 µg/g.
